Results on seven compounds are retold here after the supplement of paper PMC11061612.

Common to all, as to assay: combination Emax (second highest fraction inhibited in the dose matrix, 72 h); higher = more inhibition; extreme values may be limits of the assay
Assay [1] concerns AMO-1 (Plasma Cell Myeloma). A digest of the protocol:
(§1)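 Cell lines grown in DMEM/F12 or RPMI with 10% FBS were plated in 1536-well plates and held 24 hours at 37°C, 5% CO2 before 72 hours of exposure to two-drug dose matrices, with DMSO typically at 0.2%. CellTiter-Glo 2.0 luminescence gave viability, which was converted to inhibition. Vehicle wells were set to 0 and blank wells to 1. Combination Emax is the second-highest inhibition in the matrix, and Bliss excess is the observed combination effect minus the expected EA + EB − EA·EB, where EA and EB are the single-agent effects.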

Assay [2] concerns Caov-4 (Ovarian Carcinoma). An outline of the steps: as §1
Another assay relates to EW-24 (Ewing's Sarcoma). An outline of the steps: as §1
Assay [3] deals with EoL-1-cell (Acute Myeloid Leukemia). An outline of the steps: as §1
The subject of assay [4] is HGC-27 (Gastric Carcinoma). An outline of the steps:
as §1

Assay [5] deals with HSC-4 (Oral Cavity Carcinoma). A digest of the protocol: as §1
Assay [6] concerns KARPAS-299 (T-Cell Non-Hodgkin's Lymphoma). An outline of the steps:
as §1

Assay [7] has as its system KMOE-2 (Acute Myeloid Leukemia). A digest of the protocol:
as §1

In assay [8] the test system is LU-65 (Non-Small Cell Lung Carcinoma). An outline of the steps: as §1
In assay [9] the test system is MLMA (Other Blood Carcinomas). An outline of the steps:
as §1

For assay [10], the system named is NCI-H1915 (Non-Small Cell Lung Carcinoma). A digest of the protocol: as §1
For assay [11], the system named is NCI-H358 (Lung Adenocarcinoma). A digest of the protocol: as §1
The test system of assay [12] is NUGC-3 (Gastric Carcinoma). An outline of the steps: as §1
In assay [13] the test system is OE19 (Esophageal Adenocarcinoma). An outline of the steps: as §1
The test system of assay [14] is OVCAR-4 (Ovarian Carcinoma). An outline of the steps: as §1
The test system of a further assay is PWR-1E (Non-Cancerous). An outline of the steps: as §1
Assay [15] has as its system SCC-15 (Oral Cavity Carcinoma). A digest of the protocol: as §1
Assay [16] has as its system TE-1 (Esophageal Squamous Cell Carcinoma). A digest of the protocol: as §1
The test system of another assay is TK10 (Kidney Carcinoma). An outline of the steps: as §1
A further assay concerns YH-13 (Glioblastoma). A digest of the protocol: as §1

SMILES strings stand for the structures.

Regarding `NC1(C(=O)N[C@@H](CCO)c2ccc(Cl)cc2)CCN(c2ncnc3[nH]ccc23)CC1` [Capivasertib] + COc1nnc2ccc(N3CCC(c4ccc(OCCN5CCN(C)C(=O)[C@H]5C)cc4)CC3)nn12 [AZD5153] (first compound max 10 µM, 7x7, partner max 1 µM), the “combination Emax” value is 0.911 in assay [1]; 0.526 in [2]; 0.756 with EW-24 (Ewing's Sarcoma); 1 in assay [3]; 0.972 in assay [4]; 0.529 in assay [5]. The “combination Emax” value is 0.741 in assay [6]; 0.831 in [7]; 0.536 in [8]; 0.994 in [9]; 0.588 in [10]; 0.585 in assay [11]. Besides, the “combination Emax” value in assay [12] came to 0.617; in assay [13], 0.656; in [14], 0.398; in the assay with PWR-1E (Non-Cancerous) it was 0.861; in assay [15], 0.508; in assay [16] it was 0.485. Moreover, the “combination Emax” value was found to be 0.63 in the assay on TK10 (Kidney Carcinoma) and 0.723 in the assay with YH-13 (Glioblastoma).
As for `NC1(C(=O)N[C@@H](CCO)c2ccc(Cl)cc2)CCN(c2ncnc3[nH]ccc23)CC1` [Capivasertib] + C[C@@H]1COCCN1C2=NC(=NC(=C2)C3(CC3)[S@](=N)(=O)C)C4=C5C=CNC5=NC=C4 [AZD6738] (first compound max 10 µM, 7x7, partner max 10 µM), the “combination Emax” value was found to be 0.903 in [1]; 0.825 in assay [2]; 0.786 in the assay on EW-24 (Ewing's Sarcoma); 1 in assay [3]; 0.923 in [4]; 0.73 in assay [5]. Also, the “combination Emax” value in assay [6] stood at 0.928; in assay [7], 0.618; in [8] it was 0.632; in assay [9] it was 0.771; in [10], 0.531; in [11] it was 0.554. Further, the “combination Emax” value in assay [12] is 0.74; in assay [13] it was 0.698; in assay [14], 0.707; with PWR-1E (Non-Cancerous), 0.947; in assay [15], 0.601; in assay [16], 0.449. Moreover, the “combination Emax” value came out at 0.605 with TK10 (Kidney Carcinoma) and 0.648 in the assay on YH-13 (Glioblastoma).
With `NC1(C(=O)N[C@@H](CCO)c2ccc(Cl)cc2)CCN(c2ncnc3[nH]ccc23)CC1` [Capivasertib] + Cn1cnc2c(F)c(Nc3ccc(Br)cc3Cl)c(C(=O)NOCCO)cc21 [Selumetinib] (first compound max 10 µM, 7x7, partner max 10 µM), the “combination Emax” value stood at 0.801 in assay [1]; 0.613 in [2]; 0.485 with EW-24 (Ewing's Sarcoma); 1 in [3]; 0.841 in assay [4]; 0.609 in assay [5]. The “combination Emax” value is 0.587 in [6]; 1 in assay [7]; 0.729 in assay [8]; 0.513 in [9]; 0.791 in [10]; 0.585 in assay [11]. In addition, the “combination Emax” value in assay [12] amounted to 0.662; in assay [13], 0.573; in [14], 0.338; in the assay with PWR-1E (Non-Cancerous), 0.486; in [15], 0.524; in assay [16] it was 0.49. Further, the figures for the “combination Emax” value in the assay with TK10 (Kidney Carcinoma) and in the assay with YH-13 (Glioblastoma) were 0.534 and 0.598, respectively.
Regarding `COc1cccc2c1C(=O)c1c(O)c3c(c(O)c1C2=O)C[C@@](O)(C(=O)CO)C[C@@H]3O[C@H]1C[C@H](N)[C@H](O)[C@H](C)O1` [Doxorubicin] + Cc1cc2ncnn2cc1Nc1ncc2c(n1)n(C1CCOCC1)c(=O)n2C [AZD7648] (first compound max 1 µM, 7x7, partner max 10 µM), the “combination Emax” value in [1] is 0.973; in assay [2] it was 0.913; with EW-24 (Ewing's Sarcoma), 0.719; in assay [3] it was 1; in assay [4], 0.928; in assay [5] it was 0.437. Also, the “combination Emax” value in assay [6] stood at 0.941; in [7] it was 0.911; in assay [8], 0.889; in assay [9] it was 0.893; in assay [10], 0.486; in [11], 0.821. For the same compound, the “combination Emax” value in [12] worked out at 0.907; in assay [13], 0.514; in [14] it was 0.451; in the assay with PWR-1E (Non-Cancerous), 0.89; in assay [15], 0.329; in assay [16], 0.736. Besides, the “combination Emax” value in the assay on TK10 (Kidney Carcinoma) worked out at 0.773; in the assay with YH-13 (Glioblastoma) it was 0.754.
Turning to `CS(=O)(=O)CCNCc1ccc(-c2ccc3ncnc(Nc4ccc(OCc5cccc(F)c5)c(Cl)c4)c3c2)o1` [Lapatinib] + C[C@@H](Oc1cc(-c2cnn(C3CCNCC3)c2)cnc1N)c1c(Cl)ccc(F)c1Cl [Crizotinib] (first compound max 10 µM, 7x7, partner max 10 µM), the “combination Emax” value in [1] amounted to 0.958; in assay [2] it was 0.849; in the assay with EW-24 (Ewing's Sarcoma) it was 0.9; in assay [3], 0.988; in [4] it was 0.983; in [5], 0.465. Moreover, the “combination Emax” value in assay [6] was determined as 0.978; in assay [7], 0.911; in assay [8], 0.894; in assay [9], 0.899; in assay [10], 0.65; in assay [11], 0.926. Besides, the “combination Emax” value in [12] was 0.96; in assay [13], 1; in [14] it was 0.727; in the assay with PWR-1E (Non-Cancerous), 0.928; in assay [15] it was 0.944; in [16], 0.919. In addition, the “combination Emax” value in the assay with TK10 (Kidney Carcinoma) came to 0.656; with YH-13 (Glioblastoma), 0.809.
Consider `CC(=O)c1c(C)c2cnc(Nc3ccc(N4CCNCC4)cn3)nc2n(C2CCCC2)c1=O` [Palbociclib] + CC1(C)CCC(CN2CCN(c3ccc(C(=O)NS(=O)(=O)c4ccc(NCC5CCOCC5)c([N+](=O)[O-])c4)c(Oc4cnc5[nH]ccc5c4)c3)CC2)=C(c2ccc(Cl)cc2)C1 [Venetoclax] (first compound max 10 µM, 7x7, partner max 1 µM), for which the “combination Emax” value in [1] is 0.273; in assay [2], 0.18; in the assay with EW-24 (Ewing's Sarcoma) it was 0.432; in assay [3] it was 0.994; in assay [4] it was 0.628; in assay [5], 0.121. Besides, the “combination Emax” value turned out to be 0.495 in assay [6]; 0.215 in [7]; 0.117 in [8]; 0.683 in [9]; 0.466 in assay [10]; 0.337 in assay [11]. Also, the “combination Emax” value in assay [12] was found to be 0.339; in [13] it was 0.257; in assay [14], 0.0611; in the assay with PWR-1E (Non-Cancerous) it was 0.149; in [15], 0.0783; in assay [16], 0.179. Further, the figures for the “combination Emax” value in the assay with TK10 (Kidney Carcinoma) and with YH-13 (Glioblastoma) were 0.3 and 0.344, respectively.
As to `CC(=O)c1c(C)c2cnc(Nc3ccc(N4CCNCC4)cn3)nc2n(C2CCCC2)c1=O` [Palbociclib] + Cc1c2c(nn1C)CSCc1cc(n(C)n1)CSc1cc(c3ccccc3c1)OCCCc1c(C(=O)O)n(C)c3c-2c(Cl)ccc13 [AZD5991] (first compound max 10 µM, 7x7, partner max 1 µM), the “combination Emax” value in assay [1] was 1; in [2], 0.602; in the assay with EW-24 (Ewing's Sarcoma), 0.577; in assay [3] it was 1; in assay [4], 0.715; in assay [5], 0.106. Moreover, the “combination Emax” value in [6] was determined as 0.968; in assay [7], 0.65; in assay [8], 0.281; in assay [9] it was 0.784; in assay [10], 0.447; in assay [11], 0.363. Moreover, the “combination Emax” value in assay [12] was found to be 0.572; in assay [13], 0.664; in assay [14] it was 0.191; in the assay on PWR-1E (Non-Cancerous) it was 0.271; in assay [15], 0.191; in assay [16], 0.194. Further, the “combination Emax” value in the assay on TK10 (Kidney Carcinoma) was 0.353; in the assay with YH-13 (Glioblastoma), 0.38.
